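All cell lines were grown in 96-well plates and treated with compound for 48 hours. At the GI50, growth is halved.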 Calls of active or inactive are those of the source. Rule as the data show it: active = GI50 up to about 1.1 µM and inactive = higher.
Tests used:
Test in all cases: NCI-60 cell line screen, 48 h
[1] = tested on: RXF 393
[2] = tested on: HCT-116
[3] = tested on: SNB-75
[4] = tested on: TK-10
[5] = tested on: EKVX
[6] = tested on: SF-295
[7] = tested on: COLO 205
[8] = tested on: SF-539
[9] = tested on: HOP-62
[10] = tested on: CAKI-1
[11] = tested on: SK-OV-3
[12] = tested on: SN12C
[13] = tested on: SK-MEL-5
[14] = tested on: CCRF-CEM
[15] = tested on: DU-145
[16] = tested on: OVCAR-3
[17] = tested on: U-251
[18] = tested on: A549
[19] = tested on: HOP-92
[20] = tested on: SK-MEL-2

| SMILES | GI50 [1] | GI50 [2] | GI50 [3] | GI50 [4] | GI50 [5] | GI50 [6] | GI50 [7] | GI50 [8] | GI50 [9] | GI50 [10] | GI50 [11] | GI50 [12] | GI50 [13] | GI50 [14] | GI50 [15] | GI50 [16] | GI50 [17] | GI50 [18] | GI50 [19] | GI50 [20] |
| --- | --- | --- | --- | --- | --- | --- | --- | --- | --- | --- | --- | --- | --- | --- | --- | --- | --- | --- | --- | --- |
| Oc1ccnc(SCc2ccc(Cl)cc2)n1 | > 100 µM (inactive) | > 100 µM (inactive) | > 100 µM (inactive) | > 100 µM (inactive) | > 100 µM (inactive) | 87.1 µM (inactive) | > 100 µM (inactive) | > 100 µM (inactive) | > 100 µM (inactive) | > 100 µM (inactive) | > 100 µM (inactive) | > 100 µM (inactive) | > 100 µM (inactive) | > 100 µM (inactive) | > 100 µM (inactive) | 57.3 µM (inactive) | > 100 µM (inactive) | > 100 µM (inactive) | > 100 µM (inactive) | > 100 µM (inactive) |
| O=C1C=C(OCCCl)C(=O)c2c(O)ccc(O)c21 | 1.92 µM (inactive) | 0.409 µM (active) | 0.405 µM (active) | 2.38 µM (inactive) | 1.91 µM (inactive) | 1.56 µM (inactive) | 0.181 µM (active) | 1.36 µM (inactive) | 0.589 µM (active) | 2.03 µM (inactive) | 1.71 µM (inactive) | 0.225 µM (active) | 0.173 µM (active) | 0.469 µM (active) | 0.29 µM (active) | 1.06 µM (active) | 1.84 µM (inactive) | 0.262 µM (active) | 2.15 µM (inactive) | 0.478 µM (active) |
| Cc1ccc(-c2[nH]c(=O)n(C3OC(CO)C(O)C(O)C3O)c(=O)c2C#N)cc1 (stereo not given) | > 100 µM (inactive) | > 100 µM (inactive) | > 100 µM (inactive) | > 100 µM (inactive) | > 100 µM (inactive) | > 100 µM (inactive) | > 100 µM (inactive) | > 100 µM (inactive) | > 100 µM (inactive) | > 100 µM (inactive) | > 100 µM (inactive) | > 100 µM (inactive) | > 100 µM (inactive) | > 100 µM (inactive) | > 100 µM (inactive) | > 100 µM (inactive) | > 100 µM (inactive) | > 100 µM (inactive) | > 100 µM (inactive) | > 100 µM (inactive) |
| O=c1cccc(Cl)[nH]1 | > 100 µM (inactive) | > 100 µM (inactive) | > 100 µM (inactive) | > 100 µM (inactive) | > 100 µM (inactive) | > 100 µM (inactive) | > 100 µM (inactive) | > 100 µM (inactive) | > 100 µM (inactive) | > 100 µM (inactive) | > 100 µM (inactive) | > 100 µM (inactive) | 27 µM (inactive) | > 100 µM (inactive) | > 100 µM (inactive) | > 100 µM (inactive) | > 100 µM (inactive) | > 100 µM (inactive) | > 100 µM (inactive) | > 100 µM (inactive) |
| O=C(c1ccsc1)c1cc2c(s1)C(=O)c1ccsc1C2=O | 0.178 µM (active) | 0.195 µM (active) | 0.171 µM (active) | 0.64 µM (active) | 0.2 µM (active) | 0.174 µM (active) | 1.51 µM (inactive) | 0.0671 µM (active) | 0.168 µM (active) | 0.499 µM (active) | 1.61 µM (inactive) | 0.0635 µM (active) | 0.0279 µM (active) | 0.155 µM (active) | 0.159 µM (active) | 0.0624 µM (active) | 0.159 µM (active) | 0.612 µM (active) | 0.34 µM (active) | 0.281 µM (active) |
| C=C(CCC/C(C)=C/C=C/[C@@H](C)CCCc1ccoc1)C[C@@H]1OC(=O)[C@H](C)[C@@H]1O | 10.3 µM (inactive) | 13.3 µM (inactive) | 9.77 µM (inactive) | 13.1 µM (inactive) | 9.2 µM (inactive) | 7.6 µM (inactive) | 8.43 µM (inactive) | 8.17 µM (inactive) | 8.69 µM (inactive) | 9.91 µM (inactive) | 7.46 µM (inactive) | 9.68 µM (inactive) | 6.3 µM (inactive) | 9.89 µM (inactive) | 10.6 µM (inactive) | 7.13 µM (inactive) | 11 µM (inactive) | 7.29 µM (inactive) | 10.6 µM (inactive) | 8.18 µM (inactive) |
| CCOc1ccc(C2Oc3c(cccc3OC)C=C2[N+](=O)[O-])cc1OCC (stereo not given) | 3 µM (inactive) | 1.5 µM (inactive) | 13.8 µM (inactive) | 15.5 µM (inactive) | 16.7 µM (inactive) | 15.3 µM (inactive) | 3.68 µM (inactive) | 2.39 µM (inactive) | 12.6 µM (inactive) | 2.94 µM (inactive) | 27.5 µM (inactive) | 10.8 µM (inactive) | 4.8 µM (inactive) | 1.35 µM (inactive) | 14.6 µM (inactive) | 4.91 µM (inactive) | 6.49 µM (inactive) | 17.3 µM (inactive) | 12.6 µM (inactive) | 5.64 µM (inactive) |
| C#CCC(O)c1ccc(OC)c(OCc2ccccc2)c1 (stereo not given) | > 100 µM (inactive) | > 100 µM (inactive) | 27 µM (inactive) | > 100 µM (inactive) | 56.2 µM (inactive) | 98.4 µM (inactive) | > 100 µM (inactive) | > 100 µM (inactive) | > 100 µM (inactive) | > 100 µM (inactive) | > 100 µM (inactive) | > 100 µM (inactive) | 46.9 µM (inactive) | 26.7 µM (inactive) | > 100 µM (inactive) | > 100 µM (inactive) | > 100 µM (inactive) | > 100 µM (inactive) | > 100 µM (inactive) | > 100 µM (inactive) |
| Cc1c(N2C(=O)C(Cl)C2/C=C/c2ccccc2)c(=O)n(-c2ccccc2)n1C (stereo not given) | 26.9 µM (inactive) | 16.9 µM (inactive) | 34.1 µM (inactive) | 14.3 µM (inactive) | 6.41 µM (inactive) | 22.1 µM (inactive) | 14.1 µM (inactive) | 22.4 µM (inactive) | 22.8 µM (inactive) | 53 µM (inactive) | 32 µM (inactive) | 20.4 µM (inactive) | 15.8 µM (inactive) | 16.1 µM (inactive) | 34.6 µM (inactive) | 20.8 µM (inactive) | 6.22 µM (inactive) | 26.4 µM (inactive) | 14.1 µM (inactive) | 17.3 µM (inactive) |
| CC1(C)C2CCC(O)(C2)C1N (stereo not given) | > 100 µM (inactive) | > 100 µM (inactive) | > 100 µM (inactive) | > 100 µM (inactive) | > 100 µM (inactive) | > 100 µM (inactive) | > 100 µM (inactive) | > 100 µM (inactive) | > 100 µM (inactive) | > 100 µM (inactive) | > 100 µM (inactive) | > 100 µM (inactive) | > 100 µM (inactive) | > 100 µM (inactive) | > 100 µM (inactive) | > 100 µM (inactive) | > 100 µM (inactive) | > 100 µM (inactive) | > 100 µM (inactive) | > 100 µM (inactive) |
| COc1cccc(/C(CC(O)(C(F)(F)F)C(F)(F)F)=N\N(C)C)c1 | > 100 µM (inactive) | > 100 µM (inactive) | > 100 µM (inactive) | > 100 µM (inactive) | > 100 µM (inactive) | > 100 µM (inactive) | > 100 µM (inactive) | > 100 µM (inactive) | > 100 µM (inactive) | > 100 µM (inactive) | > 100 µM (inactive) | > 100 µM (inactive) | > 100 µM (inactive) | > 100 µM (inactive) | > 100 µM (inactive) | > 100 µM (inactive) | > 100 µM (inactive) | > 100 µM (inactive) | > 100 µM (inactive) | > 100 µM (inactive) |
| O=C(CBr)NCCc1c[nH]c2ccccc12 | 1.09 µM (active) | 1.65 µM (inactive) | 1.65 µM (inactive) | 1.86 µM (inactive) | 1.79 µM (inactive) | 13.7 µM (inactive) | 1.65 µM (inactive) | 1.81 µM (inactive) | 1.94 µM (inactive) | 0.776 µM (active) | 2.67 µM (inactive) | 1.45 µM (inactive) | 1.17 µM (inactive) | 0.174 µM (active) | 2.07 µM (inactive) | 1.92 µM (inactive) | 1.87 µM (inactive) | 2.14 µM (inactive) | 2.29 µM (inactive) | 1.92 µM (inactive) |
| C[C@]12CC[C@H](O)C[C@H]1CC[C@@H]1[C@@H]2CC[C@]2(C)[C@@H](C3=CC(=O)OC3)[C@@H](O)C[C@]12O [GITOXIGENIN] | 1.15 µM (inactive) | 1.66 µM (inactive) | 4.15 µM (inactive) | 0.625 µM (active) | 0.785 µM (active) | 1.41 µM (inactive) | 2.61 µM (inactive) | 0.849 µM (active) | 1.11 µM (active) | 1.58 µM (inactive) | 2.71 µM (inactive) | 0.566 µM (active) | 1.3 µM (inactive) | 0.51 µM (active) | 1.04 µM (active) | 0.457 µM (active) | 2.22 µM (inactive) | 0.445 µM (active) | 9.66 µM (inactive) | 2.17 µM (inactive) |

— ChEMBL document CHEMBL1201862, “PubChem BioAssay data set” (2004)
